In article PMC5478271, “Chemical structure-guided design of dynapyrazoles, cell-permeable dynein inhibitors with a unique mode of action” (eLife, 2017):

Target: T1, human cytoplasmic dynein 2 (GFP-dynein 2, amino acids 1091–4307) (Homo sapiens, UniProt Q8NCM8)
T1 construct: (AA 1091–4307, uniprot: Q8NCM8); protein A tag (followed by TEV-cleavable linker) (N, cleaved yes); made in house; host or cells: Sf9 insect cells (baculovirus)
Experiment: Microtubule gliding (motility) assay with GFP-dynein 2
Assay type: biochemical
Conditions: 0.05 mg/mL casein; for Velocity of dynein-2-driven microtubule gliding: 20 µM compound, solvent control 128 ± 14 nm/s, mean ± S.D.; for Velocity of dynein-2-driven microtubule gliding / IC50: 1 mM MgATP, 2% DMSO; for IC50: read-out: IC50, inhibition of GFP-dynein-2-driven motility
Method: We purified an N-terminally GFP-tagged motor-domain construct of dynein 2 using an insect cell expression system ([Schmidt et al., 2015]). The GFP tag in this construct (GFP-dynein 2, amino acids 1091–4307) allowed the motor protein to be immobilized on passivated glass coverslips used in microtubule gliding assays. GFP-dynein 2 was obtained as a mono-disperse peak by gel filtration (Figure 2D and E). In the presence of ATP (1 mM), this protein moved microtubules with a velocity of 128 ± 14 nm/s (mean ± SD, Figure 2G and I).
Reaction setup: A coverslip-based motility assay was adapted from similar assays reported previously ([Firestone et al., 2012]; [Schmidt et al., 2015]). A flow chamber assembled on a pre-cleaned microscope coverslide (3–5 µL chamber volume) was hydrated with buffer A (25 mM PIPES, 30 mM KCl, 5 mM MgCl2, 1 mM EGTA, 0.01% Triton X-100, 1 mM DTT, 20 µM taxol, pH 7.0 with KOH). Anti-GFP antibody (0.4 mg/mL, affinity purified rabbit antibody) was flowed into the chamber and allowed to adhere non-specifically to the glass for 20 s. The surface was blocked using 0.5 mg/mL α-casein in buffer A. Excess protein was then washed away with buffer A. GFP-dynein motor domain was diluted in buffer A supplemented with 1 mM DTT and 0.1 mM ATP (2 mM DTT final; GFP-dynein 2 diluted to: 180 nM; GFP-dynein 1 diluted to: 60 nM), flowed into the chamber and allowed to bind for 20 s. Excess protein was washed away with buffer A. Reaction mix (25 mM PIPES, 90 mM KCl, 6 mM MgCl2, 1 mM EGTA, 0.01% Triton X-100, 3 mM DTT, 20 µM taxol, 1 mM ATP, 1x oxygen scavenging system components [4.5 mg/mL glucose, 35 µg/mL catalase, 200 µg/mL glucose oxidase], 2% final DMSO [v/v] with compounds at appropriate concentrations, 0.05 mg/mL α-casein, microtubules [rhodamine labeled, purified from bovine brain, GMP-CPP and Taxol-stabilized], pH 7.0 with KOH) was flowed into the chamber using ~4 chamber volumes. For experiments shown in Figure 4—figure supplement 1, α-casein concentration in reaction mix was 0.5 mg/mL and all other parameters were held constant.
For reversibility experiments, motility in the presence of 5 µM 8 was observed as above, and upon completion of imaging, the chamber, fresh buffer A supplemented with 1 mM ATP was flowed into the chamber and incubated for 1 min; this wash and incubation cycle was repeated twice. Reaction mix containing DMSO (no compound) was flowed into the chamber using ~4 chamber volumes. The chamber was sealed with valap and returned to the microscope.
Microscopy conditions: Following addition of reaction mix, microtubules were allowed to bind for 5 min before imaging. For reversibility experiments, microtubules were allowed to bind for 10 min before imaging. Videos were taken on a Zeiss Axiovert 200M wide-field microscope equipped with a Zeiss 100x/1.45 NA α-Plan-Fluar objective. Data were captured with an EM-CCD camera (iXon DU-897, Andor Technology) with a 0.2 s exposure time and frame rate of 0.25–0.5/second. Four 10–20 s videos were captured per experimental condition. Velocities were measured using the kymograph tool in FIJI ([Schindelin et al., 2012]). Data analysis is discussed below under ‘General data analysis procedures.’
Microtubule velocity measurements: the tracks of microtubules were traced and converted to kymographs (x axis-displacement, y axis-time) using the kymograph function of FIJI (RRID: SCR_002285). The angle formed between an edge of a microtubule and the horizontal was measured. This angle, θ, was converted into velocity using the following relationship: velocity = 1/|tangent(θ)| * (unit pixel distance)/(time interval between frames).
The calibrated pixel distance was 0.152 µm and the time interval between frames was either 2 or 4 s. The velocities of at least seven microtubules were measured per field of view, if sufficient tracks could be found. In cases where fewer than seven microtubules were found in a field of view, velocities of all microtubules on the coverslip were measured. […]

T1 sequence (Q8NCM8 1091-4307): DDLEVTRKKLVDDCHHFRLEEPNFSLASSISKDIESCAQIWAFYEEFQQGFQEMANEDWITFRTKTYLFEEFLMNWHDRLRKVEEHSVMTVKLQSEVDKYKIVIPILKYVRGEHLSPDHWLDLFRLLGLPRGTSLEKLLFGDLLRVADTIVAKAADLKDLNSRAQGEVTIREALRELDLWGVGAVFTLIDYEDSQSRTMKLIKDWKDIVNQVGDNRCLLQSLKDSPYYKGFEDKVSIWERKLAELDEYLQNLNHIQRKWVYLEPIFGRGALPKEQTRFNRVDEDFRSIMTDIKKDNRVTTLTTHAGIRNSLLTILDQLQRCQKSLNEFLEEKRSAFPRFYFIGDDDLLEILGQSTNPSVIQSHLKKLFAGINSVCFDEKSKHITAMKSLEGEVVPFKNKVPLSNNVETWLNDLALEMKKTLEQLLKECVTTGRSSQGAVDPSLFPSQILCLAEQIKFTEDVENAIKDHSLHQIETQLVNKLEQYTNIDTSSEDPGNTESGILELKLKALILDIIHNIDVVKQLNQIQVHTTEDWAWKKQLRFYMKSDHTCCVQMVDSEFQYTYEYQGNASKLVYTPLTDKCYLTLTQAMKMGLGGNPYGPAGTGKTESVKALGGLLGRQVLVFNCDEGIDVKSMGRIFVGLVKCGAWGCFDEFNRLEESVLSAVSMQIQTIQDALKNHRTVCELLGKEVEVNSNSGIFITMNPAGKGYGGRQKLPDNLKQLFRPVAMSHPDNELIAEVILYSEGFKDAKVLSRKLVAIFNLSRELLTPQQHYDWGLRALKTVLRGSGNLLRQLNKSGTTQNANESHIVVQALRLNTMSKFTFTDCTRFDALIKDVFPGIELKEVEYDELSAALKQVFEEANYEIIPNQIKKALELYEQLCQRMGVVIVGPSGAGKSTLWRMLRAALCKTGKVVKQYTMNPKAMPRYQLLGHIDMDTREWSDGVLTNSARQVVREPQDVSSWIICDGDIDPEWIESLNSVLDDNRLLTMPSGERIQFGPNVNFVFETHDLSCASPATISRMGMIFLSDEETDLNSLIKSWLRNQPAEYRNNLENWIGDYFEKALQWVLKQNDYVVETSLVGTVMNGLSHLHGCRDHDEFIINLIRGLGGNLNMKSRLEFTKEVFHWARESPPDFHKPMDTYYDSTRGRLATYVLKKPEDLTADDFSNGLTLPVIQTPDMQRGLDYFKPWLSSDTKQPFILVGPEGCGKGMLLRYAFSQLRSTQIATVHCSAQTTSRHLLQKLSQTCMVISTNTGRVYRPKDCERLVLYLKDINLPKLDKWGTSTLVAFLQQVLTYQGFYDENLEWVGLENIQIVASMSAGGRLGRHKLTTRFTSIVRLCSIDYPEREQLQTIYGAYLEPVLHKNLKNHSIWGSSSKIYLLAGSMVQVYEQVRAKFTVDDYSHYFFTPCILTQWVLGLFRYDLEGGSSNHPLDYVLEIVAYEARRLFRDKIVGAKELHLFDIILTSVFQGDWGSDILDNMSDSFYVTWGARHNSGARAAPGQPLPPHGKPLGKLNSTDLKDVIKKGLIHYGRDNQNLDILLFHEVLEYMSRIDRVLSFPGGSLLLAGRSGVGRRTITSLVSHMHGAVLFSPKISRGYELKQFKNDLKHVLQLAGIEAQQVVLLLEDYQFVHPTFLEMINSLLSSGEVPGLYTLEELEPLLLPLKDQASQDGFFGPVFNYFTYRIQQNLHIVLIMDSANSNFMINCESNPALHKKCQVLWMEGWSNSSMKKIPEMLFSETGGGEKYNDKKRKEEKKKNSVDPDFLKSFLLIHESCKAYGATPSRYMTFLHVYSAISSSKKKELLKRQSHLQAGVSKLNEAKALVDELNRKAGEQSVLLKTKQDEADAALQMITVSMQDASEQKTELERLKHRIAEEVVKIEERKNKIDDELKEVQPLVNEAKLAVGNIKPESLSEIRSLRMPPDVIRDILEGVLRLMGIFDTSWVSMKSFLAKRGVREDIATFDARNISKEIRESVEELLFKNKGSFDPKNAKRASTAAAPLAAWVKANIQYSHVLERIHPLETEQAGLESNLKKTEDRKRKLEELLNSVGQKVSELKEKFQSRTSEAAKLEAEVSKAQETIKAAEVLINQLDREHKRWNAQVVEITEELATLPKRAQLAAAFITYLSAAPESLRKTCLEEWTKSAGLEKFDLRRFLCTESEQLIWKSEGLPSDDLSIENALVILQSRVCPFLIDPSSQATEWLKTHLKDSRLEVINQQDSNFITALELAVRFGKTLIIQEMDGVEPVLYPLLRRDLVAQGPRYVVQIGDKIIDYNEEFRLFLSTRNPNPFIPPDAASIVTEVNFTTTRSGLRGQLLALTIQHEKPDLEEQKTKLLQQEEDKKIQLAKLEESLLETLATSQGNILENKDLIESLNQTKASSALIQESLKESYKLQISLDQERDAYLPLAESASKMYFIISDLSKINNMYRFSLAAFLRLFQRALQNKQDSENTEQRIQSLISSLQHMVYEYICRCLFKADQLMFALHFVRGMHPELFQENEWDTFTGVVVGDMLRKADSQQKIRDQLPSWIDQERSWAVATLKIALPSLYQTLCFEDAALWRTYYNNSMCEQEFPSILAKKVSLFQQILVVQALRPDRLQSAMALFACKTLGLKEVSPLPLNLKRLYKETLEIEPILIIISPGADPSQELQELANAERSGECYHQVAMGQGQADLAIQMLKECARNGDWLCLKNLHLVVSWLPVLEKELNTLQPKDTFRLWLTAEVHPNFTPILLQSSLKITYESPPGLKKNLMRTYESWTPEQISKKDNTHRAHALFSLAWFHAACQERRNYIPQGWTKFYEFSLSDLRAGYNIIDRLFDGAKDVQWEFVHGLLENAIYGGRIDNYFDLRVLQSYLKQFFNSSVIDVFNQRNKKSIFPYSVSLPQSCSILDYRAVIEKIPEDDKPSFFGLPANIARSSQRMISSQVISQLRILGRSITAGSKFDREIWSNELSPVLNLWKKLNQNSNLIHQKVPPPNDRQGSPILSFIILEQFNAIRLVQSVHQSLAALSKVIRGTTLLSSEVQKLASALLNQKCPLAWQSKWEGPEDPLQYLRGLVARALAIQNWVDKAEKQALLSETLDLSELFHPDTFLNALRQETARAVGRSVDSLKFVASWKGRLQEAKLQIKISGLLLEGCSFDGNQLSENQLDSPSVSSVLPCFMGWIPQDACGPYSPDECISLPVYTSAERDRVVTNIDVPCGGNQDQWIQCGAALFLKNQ

Row | Structure (SMILES) | Velocity of dynein-2-driven microtubule gliding | IC50 | Reversibility of inhibition of dynein-2-dependent motility after washout (5 µM 8, then washout, 1 mM ATP)
1 | N#C/C(C(=O)c1ccc(Cl)cc1Cl)=C1\NC(=O)c2ccc(Cl)cc2N1 [ciliobrevin D, reference compound] | 83 ± 10 nm/s | 20 µM | –
2 | N#Cc1c(C2(c3ccc(Cl)cc3)CC2)nn2c1[nH]c(=O)c1cc(I)ccc12 [Compound 8, 2-[1-(4-chlorophenyl)cyclopropyl]-7-iodo-5-oxo-4H-pyrazolo[1,5-a]quinazoline-3-carbonitrile] | 6 ± 2 nm/s | 2.6 ± 1.3 µM | reversed following washout
